Results: patent publication US11136339B2, “Dihydroartemisinin diploid derivative, pharmaceutical composition thereof, and application” (priority 2017, dated 2021)
In brackets after ≈: the same amount, converted by molar mass.

Experiments:
[1] = tested on: Hep G2: human liver cancer cells; assay: Human cancer cell killing test by MTT method, Hep G2; format: cell-based; details: HepG2, 96 h, read-out: IC50 Hep G2
Method: (§1) Well-growing tumor cells were collected, a RPM11640 medium containing 10% fetal bovine serum was used to prepare […] cell suspension, the tumor cells were inoculated in a 96-well culture plate, and 100 μL of the cell suspension (containing 1000 tumor cells) was added into each well, cultured in 5% CO2 incubator at 37° C. for 24 h, and then added with drugs (see Table 2). Blank control and solvent control were set in the experiment, and tested samples were set with four concentrations, with three parallel wells for each concentration, and cultured in 5% CO2 incubator at 37° C. for 4 days. A culture solution was discarded, and 100 μL of MTT solution (0.4 mg/mL, RPM11640 preparation) was added into each well and incubated at 37° C. for 4 h. A supernatant was discarded, 150 μL of […] was added into each well to dissolve particles, and after slight shaking, an OD value was measured at a detection wavelength of 540 nm and a reference wavelength of 450 nm with a 550 microplate reader.
(§2) Result calculation: a dose-response curve can be obtained by plotting different concentrations of drugs and inhibition rates to cells, from which the median inhibitory concentration (IC50) can be obtained, and results are shown in Table 2. […] This is probably because that the artesunate is released slowly. […]

[2] = in vivo; details: female, BALB/c, mouse, iv, 10 mg/kg
Method: BALB/c mice (female, five weeks, 20 g to 22 g) were divided into four groups (three mice in each group). […] A PBS solution of drugs was injected through tail vein.
Blood samples were respectively taken at predetermined times (0.25 h, 0.5 h, 1 h, 3 h, 6 h, 12 h, 24 h and 48 h) and centrifuged at 3,000 rpm for 10 min to obtain plasma.

[3] = tested on: A549: human lung adenocarcinoma cells; assay: Human cancer cell killing test by MTT method, A549; format: cell-based; details: A549, 96 h, read-out: IC50 A549
Method: as §1, §2

[4] = tested on: MCF-7: human breast cancer cells; assay: Human cancer cell killing test by MTT method, MCF-7; format: cell-based; details: MCF7, 96 h, read-out: IC50 MCF-7
Method: as §1, §2

[5] = Solubility in water; format: physicochemical; details: 20 °C
Method: 0.1 g of product B was dissolved in 20 mL of dichloromethane, added with 10 ml of TFA and 1 mL of triisopropylsilane, and reacted at 25° C. for 2 h. A reaction solution was diluted to 50 mL with dichloromethane, washed three times with saturated NaHCO3, and dried with Na2SO4, and a solvent was evaporated by rotation to obtain crude products. The crude product was purified by silica gel column (a mobile phase was dichloromethane: methanol/65:25) to obtain product of dihydroartemisinin dithiodiglycolic acid dimer carboxyl betaine. […] MS: [M+H]^+ 1039.27.

[6] = tested on: HeLa:; assay: Human cancer cell killing test by MTT method, HeLa; format: cell-based; details: 96 h, read-out: IC50 HeLa
Method: as §1, §2

[7] = tested on: human erythrocyte infected by plasmodium strain (3D7); assay: Plasmodium killing test, SYBR Green I fluorescence method; format: cell-based; details: 3D7, Erythrocyte, 48 h, read-out: median inhibitory concentration IC50 for killing plasmodium
Method: Method: a plasmodium killing effect of a sample measured by a SYBR Green I fluorescence method
Material: human erythrocyte infected by plasmodium strain (3D7) (0.5% parasitemia), RPMI 1640 complete medium, and carbon dioxide incubator (5% CO2, 5% O2, equilibrium N2, and 37° C.)
The medium was blank. The erythrocytes were incubated in a carbon dioxide incubator for 48 h (37° C.).

[8] = tested on: HL-60: human promyelocytic leukemia cells; assay: Human cancer cell killing test by MTT method, HL-60; format: cell-based; details: HL-60, 96 h, read-out: IC50 HL-60
Method: as §1, §2

[9] = In-vivo toxicity test of a mouse, oral administration; details: ICR mouse, male
Description: Animal: ICR mouse, male, 18 g to 22 g, purchased from Vital River Laboratory Animal Technology Co., Ltd.

Compound	IC50 [1] [µg/mL]	AUC(0-t) [2] [ng·h/mL]	Cmax [2] [ng/mL]	MRT last [2] [h]	clearance [2] [mL/min/kg]	half-life [2] [h]	IC50 [3] [µg/mL]	IC50 [4] [µg/mL]	solubility [5] [µg/mL]	IC50 [6] [µg/mL]	IC50 [7] [nM]	IC50 [8] [µg/mL]	Oral median lethal dose [9] [mg/kg weight]
C[C@H]1[C@H](OC(=O)CCC(=O)O)O[C@@H]2O[C@@]3(C)CC[C@H]4[C@H](C)CC[C@@H]1[C@@]24OO3 [Artesunate]	100 (≈ 260 µM)	80700	23400	2.71	3.73	1.52	110 (≈ 286 µM)	150 (≈ 390 µM)	360 (≈ 936 µM)	130 (≈ 338 µM)	10.3	130 (≈ 338 µM)	–
C[C@H]1[C@@H](O)O[C@@H]2O[C@@]3(C)CC[C@H]4[C@H](C)CC[C@@H]1[C@@]24OO3 [Dihydroartemisinin]	–	–	–	–	–	–	–	–	–	–	–	–	810
